Experimental data as given in ChEMBL document CHEMBL1155652, “Synthesis of the marine sponge cycloheptapeptide phakellistatin 5(1)” (2000).
Where a SMILES comes first, the peptide text is derived from it. [ ]: non-standard residue; d: D form.

Legend:
Assay type in all cases: functional
P388 = experiment: Growth inhibition of mouse P388 cells
OVCAR-3 = experiment: Growth inhibition of human OVCAR-3 cells
SF-295 = experiment: Growth inhibition of human SF295 cells
NCI-H460 = experiment: Growth inhibition of human NCI-H460 cells
DU-145 = experiment: Growth inhibition of human DU145 cells
KM-20L2 = experiment: Growth inhibition of human KM20L2 cells
SK-MEL-5 = experiment: Growth inhibition of human SK-MEL-5 cells

Measured: GI50

CC[C@H](C)[C@@H]1NC(=O)[C@H](C)NC(=O)[C@H](CCSC)NC(=O)[C@H](C)NC(=O)[C@@H](CC(N)=O)NC(=O)[C@H](Cc2ccccc2)NC(=O)[C@@H]2CCCN2C1=O [(R)-ASN-PHAKELLISTATIN 5] (cyclo(AIPF[dN]AM))
> 10 µg/mL: all assays above

CC[C@H](C)[C@@H]1NC(=O)[C@H](C)NC(=O)[C@H](CCSC)NC(=O)[C@H](C)NC(=O)[C@H](CC(N)=O)NC(=O)[C@H](Cc2ccccc2)NC(=O)[C@@H]2CCCN2C1=O [(S)-ASN-PHAKELLISTATIN 5] (cyclo(AIPFNAM))
> 10 µg/mL: all assays above
